Measured values: BindingDB's records for doi:10.1124/jpet.103.058636 (National Institutes of Health, 2004)

Target: Sodium-dependent serotonin transporter (Mus musculus, UniProt Q60857)
Sequence (Q60857 whole entry): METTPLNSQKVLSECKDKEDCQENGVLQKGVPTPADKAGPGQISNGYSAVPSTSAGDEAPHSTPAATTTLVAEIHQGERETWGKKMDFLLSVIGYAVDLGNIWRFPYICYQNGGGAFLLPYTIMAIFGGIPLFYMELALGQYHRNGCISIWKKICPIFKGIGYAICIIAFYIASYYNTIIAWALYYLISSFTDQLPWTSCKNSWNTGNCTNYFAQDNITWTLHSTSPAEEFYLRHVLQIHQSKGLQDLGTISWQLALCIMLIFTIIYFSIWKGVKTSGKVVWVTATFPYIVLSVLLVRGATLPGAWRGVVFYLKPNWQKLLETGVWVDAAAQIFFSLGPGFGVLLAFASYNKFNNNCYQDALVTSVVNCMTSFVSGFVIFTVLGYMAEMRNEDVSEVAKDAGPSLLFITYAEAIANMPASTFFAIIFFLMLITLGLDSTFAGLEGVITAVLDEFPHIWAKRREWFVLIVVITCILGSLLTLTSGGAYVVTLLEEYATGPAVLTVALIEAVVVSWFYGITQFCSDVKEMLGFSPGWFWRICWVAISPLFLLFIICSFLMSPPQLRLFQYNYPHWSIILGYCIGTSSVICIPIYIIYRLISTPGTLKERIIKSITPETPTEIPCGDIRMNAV

`CCNC(C)Cc1cccc(C(F)(F)F)c1` (stereo unspecified) [NSC_3337] showed a Ki of 7.05 µM.
